# Reference: patent US7947738B2, “Bicyclic γ-amino acid derivative” (Daiichi Sankyo Company, Ltd., priority 2007, dated 2011)
# pIC50: −log10 of the molar value. Where a name gives a salt, the structure may show the parent alone.
# System: not given
# Experiment: not given
# Details: not given
row,Compound,melting point
1,CCC1=C[C@H]2[C@@H](C1)C[C@@]2(CNO)CC(=O)O.Cl (racemic),98 to 99 °C
2,"Cl.NC[C@]1(CC(=O)O)C[C@H]2CC=C[C@H]21 [Example 6, [(1R,5S,6S)-6-(aminomethyl)bicyclo[3.2.0]hept-3-en-6-yl]acetic acid benzenesulfonate]",161 to 162 °C

# Molecular target: T1, human Cacna2d1 (human calcium channel subunit α2δ1) (Homo sapiens, UniProt P54289)
# T1 construct: 293 cells were transfected with the human Cacna2d1 expression plasmid pRK/hCacna2d1 constructed in paragraph a); expressed in transfected cells; membrane fraction
# T1 sequence (P54289 25-1091 isoform P54289-2 limits assumed): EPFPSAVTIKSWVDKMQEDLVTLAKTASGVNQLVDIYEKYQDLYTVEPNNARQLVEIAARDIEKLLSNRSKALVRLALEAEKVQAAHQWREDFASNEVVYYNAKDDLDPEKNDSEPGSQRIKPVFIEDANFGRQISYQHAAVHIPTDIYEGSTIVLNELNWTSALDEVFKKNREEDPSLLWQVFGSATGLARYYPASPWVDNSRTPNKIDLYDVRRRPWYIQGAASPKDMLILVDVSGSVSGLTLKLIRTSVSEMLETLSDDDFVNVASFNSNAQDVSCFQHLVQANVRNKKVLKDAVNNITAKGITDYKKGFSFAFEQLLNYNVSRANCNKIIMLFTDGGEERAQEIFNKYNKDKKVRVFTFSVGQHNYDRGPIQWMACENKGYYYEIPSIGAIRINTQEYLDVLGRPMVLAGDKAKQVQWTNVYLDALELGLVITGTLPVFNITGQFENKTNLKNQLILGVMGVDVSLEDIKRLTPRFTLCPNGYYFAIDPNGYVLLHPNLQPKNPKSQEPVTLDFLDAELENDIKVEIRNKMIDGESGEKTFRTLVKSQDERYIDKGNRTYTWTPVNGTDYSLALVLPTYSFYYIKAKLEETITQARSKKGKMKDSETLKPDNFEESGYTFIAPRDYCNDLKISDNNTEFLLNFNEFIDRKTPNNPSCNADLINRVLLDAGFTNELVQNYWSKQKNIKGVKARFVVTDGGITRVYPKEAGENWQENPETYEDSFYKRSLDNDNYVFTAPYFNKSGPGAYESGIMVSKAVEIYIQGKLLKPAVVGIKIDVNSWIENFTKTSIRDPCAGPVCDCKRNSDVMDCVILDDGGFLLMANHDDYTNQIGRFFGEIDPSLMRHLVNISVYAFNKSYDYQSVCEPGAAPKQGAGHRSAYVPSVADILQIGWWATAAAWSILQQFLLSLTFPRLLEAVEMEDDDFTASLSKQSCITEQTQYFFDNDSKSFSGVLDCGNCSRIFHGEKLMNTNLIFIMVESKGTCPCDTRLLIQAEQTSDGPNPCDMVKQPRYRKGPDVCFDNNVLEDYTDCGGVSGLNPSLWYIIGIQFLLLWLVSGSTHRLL
# Experiment: Cacna2d1/GBP binding reaction inhibitory activity (3H-GBP binding to human Cacna2d1-expressing cell membrane fraction)
# Details: IC50 (nM), concentration inhibiting 50% of Cacna2d1/GBP binding, 3H-GBP 4.5 nM, 4° C.
# Experimental: 293 cells were transfected with the human Cacna2d1 expression plasmid pRK/hCacna2d1 constructed in paragraph a), and a cell line stably expressing human Cacna2d1 was obtained with human Cacna2d1 protein expression as an index. Specifically, 2×10^6 293 cells were inoculated onto a φ6 cm dish and cultured for 12 hours. Then, the cells were cotransfected with 5 μg of pRK/hCacna2d1 and 0.5 μg of a neomycin-resistant gene expression plasmid pSV2neo (Clontech) using a transfection reagent Lipofectamine Plus (Invitrogen Corp.) according to the protocol provided for the reagent.
# The human Cacna2d1-expressing 293 cells obtained in paragraph b) were cultured in large scale in DMEM (Invitrogen Corp.) supplemented with 10% fetal bovine serum (Cansera International, Inc.) and 500 μg/ml G418 (Invitrogen Corp.), and the cells were collected. A protease inhibitor (Complete EDTA free (Roche Applied Science)) was added in an amount recommended for the reagent to a binding assay buffer (10 mM MOPS (pH 7.4), 10 mM HEPES (pH 7.4), 100 mM NaCl) to prepare a membrane fraction preparation buffer. The collected cells were washed with the membrane fraction preparation buffer and then homogenized using an ultrasonicator. Then, the homogenate was centrifuged at 12,000 rpm at 4° C. for 1 hour using a centrifuge. The supernatant was discarded, and the precipitate was suspended in the membrane fraction preparation buffer. The procedure from the ultrasonication using a ultrasonicator to the suspension of the precipitate after centrifugation was further repeated three times, and the obtained suspension was used as a human Cacna2d1-expressing cell membrane fraction. The total level of proteins contained in the membrane fraction was calculated from UV absorbance at a wavelength of 280 nm.
# The human Cacna2d1-expressing cell membrane fraction and GBP labeled with a radioisotope ^3H (hereinafter, referred to as ^3H-GBP; Tocris Cookson Ltd.) were diluted with a binding assay buffer (10 mM MOPS (pH 7.4), 10 mM HEPES (pH 7.4), 100 mM NaCl) at a final concentration of 2.5 mg/ml in terms of the total protein level and a final ^3H-GBP concentration of 4.5 nM, respectively, to prepare 120 μl of a reaction solution, which was in turn left standing at 4° C. for 3 hours. This reaction product was added to wells of a filter plate (UniFilter 350 GF/B (Whatman)) and filtered through the filter. Then, a washing procedure involving the addition of 350 μl of a binding assay buffer (10 mM MOPS (pH 7.4), 10 mM HEPES (pH 7.4), 100 mM NaCl) and filtration through the filter was repeated three times. The filter plate was thoroughly dried, and the underside was sealed. After addition of 50 μl of Microscint 20 (PerkinElmer Inc.), the upper surface was also sealed, and radiation derived from the radioisotope ^3H remaining on the filter was counted using TopCount (PerkinElmer Inc.). From the obtained value, a value obtained by adding unlabeled GBP (SIGMA-ALDRICH INC.) at a final concentration of 20 μM to the present assay was subtracted as that derived from nonspecific adsorption, and the obtained value was used as the specific binding level of ^3H-GBP to Cacna2d1 (unit: “count”).
# Each test compound was added at various concentrations to the Cacna2d1/GBP binding reaction detection assay constructed in paragraph a), and the binding level was measured by the method described in paragraph a). Then, with the Cacna2d1/GBP specific binding level obtained by the addition of the compound at a concentration of x nM defined as “binding level [x]” and the Cacna2d1/GBP binding inhibitory rate thereagainst defined as “inhibitory rate [x]”, the inhibitory rate (%) was determined based on the following equation: Inhibitory rate [x](%)=(1−(binding level [x]/binding level))×100, wherein the binding level refers to the binding level of ^3H-GBP obtained without the addition of the compound.
# The inhibitory rate was plotted against the concentration.
row,Compound,IC50
1,"CCC(C)C1=CC2C(C1)CC2(CN)CC(=O)O (mixture of isomers) [Example 13, (±)-[(1S,5R,6R)-6-aminomethyl-3-sec-bicyclo[3.2.0]hept-3-en-6-yl]acetic acid]",200 nM
2,"NC[C@@]1(CC(=O)O)C[C@@H]2CC=C[C@@H]21 (racemic) [Example 1, (±)-[(1S,5R,6R)-6-(aminomethyl)bicyclo[3.2.0]hept-3-en-6-yl]acetic acid]",51 nM
3,"CC1=C[C@H]2[C@@H](C1)C[C@@]2(CN)CC(=O)O (racemic) [Example 7, (±)-[(1S,5R,6R)-6-aminomethyl-3-methylbicyclo[3.2.0]hept-3-en-6-yl]acetic acid]",36 nM
4,"CCC1=C[C@H]2[C@@H](C1)C[C@@]2(CN)CC(=O)O (racemic) [Example 8, (±)-[(1S,5R,6R)-6-aminomethyl-3-ethylbicyclo[3.2.0]hept-3-en-6-yl]acetic acid]",28 nM
5,"CCCC1=C[C@H]2[C@@H](C1)C[C@@]2(CN)CC(=O)O (racemic) [Example 9, (±)-[(1S,5R,6R)-6-aminomethyl-3-propylbicyclo[3.2.0]hept-3-en-6-yl]acetic acid]",32 nM
6,"CCCCC1=C[C@H]2[C@@H](C1)C[C@@]2(CN)CC(=O)O (racemic) [Example 10, (±)-[(1S,5R,6R)-6-aminomethyl-3-butylbicyclo[3.2.0]hept-3-en-6-yl]acetic acid]",28 nM
7,"CC(C)C1=C[C@H]2[C@@H](C1)C[C@@]2(CN)CC(=O)O (racemic) [Example 11, (±)-[(1S,5R,6R)-6-aminomethyl-3-isopropylbicyclo[3.2.0]hept-3-en-6-yl]acetic acid]",89 nM
8,"CC(C)CC1=C[C@H]2[C@@H](C1)C[C@@]2(CN)CC(=O)O (racemic) [Example 12, (±)-[(1S,5R,6R)-6-aminomethyl-3-isobutylbicyclo[3.2.0]hept-3-en-6-yl]acetic acid]",32 nM
9,"NC[C@@]1(CC(=O)O)C[C@@H]2CC(C3CCCC3)=C[C@@H]21 (racemic) [Example 14, (±)-[(1S,5R,6R)-6-aminomethyl-3-cyclopentylbicyclo[3.2.0]hept-3-en-6-yl]acetic acid]",55 nM
10,"C=CCC1=C[C@H]2[C@@H](C1)C[C@@]2(CN)CC(=O)O (racemic) [Example 15, (±)-[(1S,5R,6R)-6-aminomethyl-3-allylbicyclo[3.2.0]hept-3-en-6-yl]acetic acid]",73 nM
11,"C[C@]12C=CC[C@H]1C[C@]2(CN)CC(=O)O (racemic) [Example 16, (±)-[(1S,5R,6S)-6-aminomethyl-5-methylbicyclo[3.2.0]hept-3-en-6-yl]acetic acid]",65 nM
12,"CC1C=C[C@@H]2[C@H]1C[C@@]2(CN)CC(=O)O (mixture of isomers) [Example 17, (±)-[(1S,5R,6R)-6-aminomethyl-2-methylbicyclo[3.2.0]hept-3-en-6-yl]acetic acid]",120 nM
13,"CC1=C(C)[C@H]2[C@@H](C1)C[C@@]2(CN)CC(=O)O (racemic) [Example 20, (±)-[(1S,5R,6R)-6-aminomethyl-3,4-dimethylbicyclo[3.2.0]hept-3-en-6-yl]acetic acid p-toluenesulfonate]",100 nM
14,"CSCC1=C[C@H]2[C@@H](C1)C[C@@]2(CN)CC(=O)O (racemic) [Example 24, (±)-{(1R,5R,6R)-6-aminomethyl-3-[(methylthio)methyl]bicyclo[3.2.0]hept-3-en-6-yl}acetic acid]",85 nM
15,"CCC1=C[C@@H]2[C@H](C1)C[C@]2(CN)CC(=O)O (single isomer, unassigned) [Example 21]",14 nM
16,"CCC1=C[C@H]2[C@@H](C1)C[C@@]2(CN)CC(=O)O (single isomer, unassigned) [Example 23]",41 nM
17,"NC[C@]1(CC(=O)O)C[C@H]2CC=C[C@H]21 [Example 2, [(1R,5S,6S)-6-(aminomethyl)bicyclo[3.2.0]hept-3-en-6-yl]acetic acid]",27 nM
18,"NC[C@]1(CC(=O)O)C[C@H]2CC=C[C@H]21 [Example 5, [(1R,5S,6S)-6-(aminomethyl)bicyclo[3.2.0]hept-3-en-6-yl]acetic acid hydrochloride]",24 nM
19,"Cl.NC[C@]1(CC(=O)O)C[C@H]2CC=C[C@H]21 [Example 6, [(1R,5S,6S)-6-(aminomethyl)bicyclo[3.2.0]hept-3-en-6-yl]acetic acid benzenesulfonate]",26 nM
20,"CCC1=C[C@@H]2[C@H](C1)C[C@]2(CN)CC(=O)O [Example 22, [(1R,5S,6S)-6-aminomethyl-3-ethylbicyclo[3.2.0]hept-3-en-6-yl]acetic acid p-toluenesulfonate]",10 nM
21,"CCC1=C[C@@H]2[C@H](C1)C[C@]2(CN)CC(=O)O [Example 31, [(1R,5S,6S)-6-(aminomethyl)-3-ethylbicyclo[3.2.0]hept-3-en-6-yl]acetic acid benzenesulfonate]",14 nM

# Same assay, conditions: concentration inhibiting 50% of Cacna2d1/GBP binding, 3H-GBP 4.5 nM, 4° C., read-out: IC50
row,Compound,pIC50
1,"CC(=O)OCC1=C[C@H]2[C@@H](C1)C[C@@]2(CN)CC(=O)O (racemic) [Example 18, (±)-[(1R,5R,6R)-3-(acetoxymethyl)-6-(aminomethyl)bicyclo[3.2.0]hept-3-en-6-yl]acetic acid]",6.17

# System: mice suffering from mechanical hyperalgesia
# Experiment: Mechanical hyperalgesia assay (von Frey filament pain score)
# Type: in vivo
# Details: oral administration, dose that offers 50% improvement relative to the pain score of vehicle-administered group
# Experimental: In the present invention, mice suffering from mechanical hyperalgesia were used in evaluation.
# The mice were acclimatized for 30 minutes in a plastic cage for measurement. Then, the test compound was orally administered to the mice, which were in turn evaluated for mechanical hyperalgesia at a measurement time predetermined by a person in charge of the test. The evaluation of mechanical hyperalgesia was conducted by a partial modification of the method of Takasaki et al. (Pain 86 95-101, 2000) to confirm the effect of the test compound on mechanical hyperalgesia. Specifically, mechanical hyperalgesia was evaluated by assessing, based on scores according to the following criteria, behavior induced by pressing 1.4 g of von Frey filament onto the sole of the animal:
# 0: no response, 1: withdrawal from von Frey filament, and 2: shaking or licking of the hind paw immediately after the stimulation.
# In one measurement, 6 stimulations were given to the mice, and the total score was used as a pain score.
# The test compound was evaluated by calculating ID50, which is the dose of the compound that offers 50% improvement relative to the pain score of a vehicle-administered group.
row,Compound,ID50
1,"NC[C@]1(CC(=O)O)C[C@H]2CC=C[C@H]21 [Example 2, [(1R,5S,6S)-6-(aminomethyl)bicyclo[3.2.0]hept-3-en-6-yl]acetic acid]",10.4 mg/kg

# System: postherpetic neuralgia
# Experiment: not given
# Details: patients' own evaluations; Non-Patent Document 3; cited from earlier work
row,Compound,efficacy in the treatment of postherpetic neuralgia
1,NCC1(CC(=O)O)CCCCC1 [gabapentine],approximately 60%

# System: painful diabetic neuropathy
# Experiment: not given
# Details: patients' own evaluations; Non-Patent Document 4; cited from earlier work
row,Compound,efficacy in the treatment of painful diabetic neuropathy
1,CC(C)C[C@H](CN)CC(=O)O [pregabalin],approximately 50%
